Results published in BindingDB's records for doi:10.1021/jm950874+ (National Institutes of Health, 1996).

Target: T1, Dimer of Gag-Pol polyprotein [489-587] (Human immunodeficiency virus 1, UniProt P12497)
T1 construct: 489-587
Assay: Protease Inhibition Assay
Conditions: pH 6.5; 37 °C
Protocol: Sensitivity of HIV-1 protease activity to protease inhibitors was determined by a peptide substrate cleavage assay. Protease products were analyzed on a reverse-phase high-pressure liquid chromatograph.

CCCCCCc1cc2c(cc1O)OC(=O)C(C(c1ccccc1)c1c(O)c3cc(CCCCCC)c(O)cc3oc1=O)C2O (stereo not drawn)
IC50: 0.32 µM

O=c1oc2cccc(O)c2c(O)c1Cc1ccccc1
IC50: 6 µM

O=C1C(=O)c2ccccc2C(=O)C1=C(c1ccc(C(C2C(=O)C(=O)c3ccccc3C2=O)C2C(=O)C(=O)c3ccccc3C2=O)cc1)c1c(O)c(O)c2ccccc2c1O (stereo not drawn) [2-({4-[bis(3-hydroxy-1,4-dioxo-1,4-dihydronaphthalen-2-yl)methyl]phenyl}(3-hydroxy-1,4-dioxo-1,4-dihydronaphthalen-2-yl)methyl)-3-hydroxy-1,4-dihydronaphthalene-1,4-dione]
IC50: 0.75 µM

O=C1C(=O)c2ccccc2C(=O)C1=C(c1ccc(Cl)cc1Cl)c1c(O)c(O)c2ccccc2c1O [2-[(2,4-dichlorophenyl)(3-hydroxy-1,4-dioxo-1,4-dihydronaphthalen-2-yl)methyl]-3-hydroxy-1,4-dihydronaphthalene-1,4-dione]
IC50: 24 µM

CC(=O)NC(Cc1ccsc1)(C(=O)O)C(=O)O [2-acetamido-2-(thiophen-3-ylmethyl)propanedioic acid]
IC50: 23 µM

CCCC(=O)c1c(O)c(C)c(O)c(CC2C(=O)C(C(=O)CCC)C(=O)C(C)(C)C2=O)c1O (stereo not drawn) [2-butanoyl-6-[(3-butanoyl-2,4,6-trihydroxy-5-methylphenyl)methyl]-3,5-dihydroxy-4,4-dimethylcyclohexa-2,5-dien-1-one]
IC50: 26 µM

O=c1oc2ccccc2c(O)c1C(c1ccc(C(c2c(O)c3ccccc3oc2=O)c2c(O)c3ccccc3oc2=O)cc1)c1c(O)c2ccccc2oc1=O [3-({4-[bis(4-hydroxy-2-oxo-2H-chromen-3-yl)methyl]phenyl}(4-hydroxy-2-oxo-2H-chromen-3-yl)methyl)-4-hydroxy-2H-chromen-2-one]
IC50: 1.7 µM

O=C1C2=C(C(=O)c3ccccc31)C(O)(S(=O)(=O)O)C(O)(S(=O)(=O)O)C1N=CC=CC21 (stereo not drawn) [11,12-dihydroxy-5,10-dioxo-4a,5,10,11,12,12a-hexahydro-1-azatetraphene-11,12-disulfonic acid]
IC50: 2 µM

CC1(C)CC[C@]2(C(=O)O)CC[C@@]3(C)C(=CC[C@H]4[C@@]5(C)C[C@H](O)[C@H](O)[C@](C)(C(=O)O)[C@H]5CC[C@]43C)[C@@H]2C1 [(2S,3R,4R,4aS,6aR,6bR,8aS,12aS,14aS,14bR)-2,3-dihydroxy-4,6a,6b,11,11,14b-hexamethyl-1,2,3,4,4a,5,6,6a,6b,7,8,8a,9,10,11,12,12a,14,14a,14b-icosahydropicene-4,8a-dicarboxylic acid]
IC50: 35 µM

C[C@]12CCC(=O)C=C1CC[C@@H]1[C@H]2[C@@H](O)C[C@@]2(C)[C@@H]1CC[C@]2(O)C(=O)COC(=O)CCC(=O)O [Cancer Chemotherapy National Service Center (CCNSC) compound 7576]
IC50: 27 µM

CC(C)CC(NC(=O)OCc1ccccc1)(C(=O)O)C(=O)O [Cancer Chemotherapy National Service Center (CCNSC) compound 20143]
IC50: 17 µM

O=C1Oc2ccccc2C(O)C1Sc1c(O)c2ccccc2oc1=O (stereo not drawn) [Cancer Chemotherapy National Service Center (CCNSC) compound 41234]
IC50: 21 µM

CC(=O)OC1CCC2(C)C(C)C(C)CCC2(O)C1O (stereo not drawn) [Cancer Chemotherapy National Service Center (CCNSC) compound 112500]
IC50: 16 µM

O=c1oc2c(-c3ccccc3)cccc2c(O)c1-c1ccccc1 [Cancer Chemotherapy National Service Center (CCNSC) compound 251150]
IC50: 13 µM

O=c1oc2ccccc2c(O)c1-c1ccccc1 [Cancer Chemotherapy National Service Center (CCNSC) compound 251152]
IC50: 42 µM

O=c1oc2ccccc2c(O)c1C(c1ccc2c(c1)OCO2)c1c(O)c2ccccc2oc1=O [Cancer Chemotherapy National Service Center (CCNSC) compound 373937]
IC50: 30 µM

CC(C)c1cccc(C(C)C)c1NC(=O)C(=O)CC(=O)CC(c1ccccc1)c1c(O)c2ccccc2oc1=O (stereo not drawn) [N-[2,6-bis(propan-2-yl)phenyl]-6-(4-hydroxy-2-oxo-2H-chromen-3-yl)-2,4-dioxo-6-phenylhexanamide]
IC50: 31 µM

O=C(Oc1ccccc1)N(CCO)C(c1ccccc1)C(O)c1ccccc1 (stereo not drawn) [phenyl N-(2-hydroxy-1,2-diphenylethyl)-N-(2-hydroxyethyl)carbamate]
IC50: 32 µM
